Calls of active or inactive are those of the source. The rule behind the calls is not given here.
What was measured:
Histone deacetylase 3 = Histone deacetylase 3 (Homo sapiens, UniProt O15379); assay: Allosteric inhibition of C-terminal His-tagged recombinant human HDAC3 expressed in Sf9 cells pre-incubated for 2 hrs before acetylated lysine-aminomethyl coumarin-BOC addition and measured after 2 hrs by fluorescence based assay
[1] = molecular target: T1, Protein deacetylase HDAC6 (Homo sapiens) (UniProt Q9UBN7); details: MV4-11, dose 100.0 nM, time 24.0 hrs
T1 sequence (whole entry): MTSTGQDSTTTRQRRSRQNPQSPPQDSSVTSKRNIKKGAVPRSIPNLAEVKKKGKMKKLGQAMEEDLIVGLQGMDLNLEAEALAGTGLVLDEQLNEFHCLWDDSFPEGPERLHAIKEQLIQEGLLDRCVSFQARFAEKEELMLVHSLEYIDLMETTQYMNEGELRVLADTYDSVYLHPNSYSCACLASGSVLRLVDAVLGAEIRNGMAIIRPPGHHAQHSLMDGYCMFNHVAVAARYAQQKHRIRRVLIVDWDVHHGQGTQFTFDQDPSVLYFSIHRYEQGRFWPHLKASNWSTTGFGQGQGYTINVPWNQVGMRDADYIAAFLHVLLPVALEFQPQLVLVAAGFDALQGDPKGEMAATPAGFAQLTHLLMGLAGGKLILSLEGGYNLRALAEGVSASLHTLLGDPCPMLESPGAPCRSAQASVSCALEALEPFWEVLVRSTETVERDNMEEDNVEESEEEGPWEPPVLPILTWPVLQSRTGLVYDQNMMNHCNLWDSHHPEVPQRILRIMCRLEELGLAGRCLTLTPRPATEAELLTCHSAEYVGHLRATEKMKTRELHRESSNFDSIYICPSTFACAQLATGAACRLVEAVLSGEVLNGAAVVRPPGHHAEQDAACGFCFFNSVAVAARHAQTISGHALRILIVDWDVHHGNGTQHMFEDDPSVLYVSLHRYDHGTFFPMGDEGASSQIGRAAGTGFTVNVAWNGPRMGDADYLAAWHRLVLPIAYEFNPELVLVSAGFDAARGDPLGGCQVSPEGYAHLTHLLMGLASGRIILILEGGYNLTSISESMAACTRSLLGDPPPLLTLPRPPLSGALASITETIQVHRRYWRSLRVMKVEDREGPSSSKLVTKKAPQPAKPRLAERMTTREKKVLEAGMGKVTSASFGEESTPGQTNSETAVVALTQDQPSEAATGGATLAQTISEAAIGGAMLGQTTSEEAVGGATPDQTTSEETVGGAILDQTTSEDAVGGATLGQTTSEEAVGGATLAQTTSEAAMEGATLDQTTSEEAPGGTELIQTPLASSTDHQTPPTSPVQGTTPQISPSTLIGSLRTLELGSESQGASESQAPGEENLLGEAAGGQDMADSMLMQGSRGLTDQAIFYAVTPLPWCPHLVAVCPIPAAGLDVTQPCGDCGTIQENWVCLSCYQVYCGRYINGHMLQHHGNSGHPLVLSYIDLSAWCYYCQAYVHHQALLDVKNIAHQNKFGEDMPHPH

[2] = Drug metabolism in human liver microsomes assessed as o-glucuronidated metabolite formation in absence of UDP glucuronic acid incubated for 12 hrs at 37 degC by electrospray ionization liquid chromatography mass spectrometry; assay type: ADME, Microsome
[3] = molecular target: T2, Class 1 histone deacetylase (Homo sapiens) (UniProt Q13547+O15379+Q92769+Q9BY41); details: time 24.0 hrs
HEK293 = assay: Cytotoxicity against HEK293 cells assessed as reduction in cell viability incubated for 48 hrs by Cell-titer-blue cell viability assay; assay type: cell-based; details: human, hek293, 48 h
[4] = molecular target: T2, Class 1 histone deacetylase (Homo sapiens); details: time 24.0 hrs; remark: listed apart in the source
[5] = Drug metabolism in human liver microsomes assessed as o-glucuronidated metabolite formation in presence of UDP glucuronic acid incubated for 12 hrs at 37 degC by electrospray ionization liquid chromatography mass spectrometry; assay type: ADME, Microsome
[6] = Cytotoxicity against human PBMC assessed as reduction in cell viability incubated for 24 hrs by Cell-titer-blue cell viability assay relative to panobinostat
[7] = Cytotoxicity against human PBMC assessed as reduction in cell viability at 10 nM incubated for 24 hrs by Cell-titer-blue cell viability assay; details: 0.01 µM
MV4-11 = assay: cells; assay type: functional, cell-based; details: Homo sapiens, MV4-11, 48 h
Description: Cytotoxicity against human MV4-11 cells assessed as reduction in cell viability incubated for 48 hrs by Cell-titer-blue cell viability assay

MOLM-14 = assay: Cytotoxicity against human MOLM-14 cells assessed as reduction in cell viability incubated for 48 hrs by Cell-titer-blue cell viability assay; assay type: functional, cell-based; details: MOLM-14, 48 h
K562 = assay: Cytotoxicity against human K562 cells assessed as reduction in cell viability incubated for 48 hrs by Cell-titer-blue cell viability assay; assay type: functional, cell-based; details: K562, 48 h
RPMI-8226 = assay: Cytotoxicity against human RPMI-8226 cells assessed as reduction in cell viability incubated for 48 hrs by Cell-titer-blue cell viability assay; assay type: functional, cell-based; details: RPMI-8226, 48 h
HL-60 = assay: Cytotoxicity against human HL-60 cells assessed as reduction in cell viability incubated for 48 hrs by Cell-titer-blue cell viability assay; assay type: functional, cell-based; details: HL-60, 48 h
RS4-11 = assay: Cytotoxicity against human RS4-11 cells assessed as reduction in cell viability incubated for 48 hrs by Cell-titer-blue cell viability assay; assay type: functional, cell-based; details: RS4-11, 48 h
[8] = Drug metabolism in human liver microsomes assessed as compound reduction in absence of UDP glucuronic acid incubated for 12 hrs at 37 degC by electrospray ionization liquid chromatography mass spectrometry; assay type: ADME, Microsome
[9] = MV4-11, filed as negative allosteric modulator, dose 100.0 nM

Chain of Histone deacetylase 3 (O15379 whole entry): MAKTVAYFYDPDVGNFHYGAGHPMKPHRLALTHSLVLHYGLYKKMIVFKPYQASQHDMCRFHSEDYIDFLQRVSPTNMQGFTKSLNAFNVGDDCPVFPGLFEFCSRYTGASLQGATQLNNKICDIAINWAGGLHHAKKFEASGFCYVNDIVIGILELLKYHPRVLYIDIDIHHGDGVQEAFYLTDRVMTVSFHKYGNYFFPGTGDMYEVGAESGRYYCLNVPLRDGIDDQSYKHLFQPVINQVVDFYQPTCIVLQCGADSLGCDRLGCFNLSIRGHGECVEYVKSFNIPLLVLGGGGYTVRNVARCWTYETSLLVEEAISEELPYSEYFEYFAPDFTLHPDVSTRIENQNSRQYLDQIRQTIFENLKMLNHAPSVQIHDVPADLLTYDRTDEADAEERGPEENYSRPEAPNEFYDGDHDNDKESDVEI
T2 sequence (O15379 whole entry, looked up): as the sequence (O15379 whole entry) above
T2 sequence (Q13547 whole entry, looked up): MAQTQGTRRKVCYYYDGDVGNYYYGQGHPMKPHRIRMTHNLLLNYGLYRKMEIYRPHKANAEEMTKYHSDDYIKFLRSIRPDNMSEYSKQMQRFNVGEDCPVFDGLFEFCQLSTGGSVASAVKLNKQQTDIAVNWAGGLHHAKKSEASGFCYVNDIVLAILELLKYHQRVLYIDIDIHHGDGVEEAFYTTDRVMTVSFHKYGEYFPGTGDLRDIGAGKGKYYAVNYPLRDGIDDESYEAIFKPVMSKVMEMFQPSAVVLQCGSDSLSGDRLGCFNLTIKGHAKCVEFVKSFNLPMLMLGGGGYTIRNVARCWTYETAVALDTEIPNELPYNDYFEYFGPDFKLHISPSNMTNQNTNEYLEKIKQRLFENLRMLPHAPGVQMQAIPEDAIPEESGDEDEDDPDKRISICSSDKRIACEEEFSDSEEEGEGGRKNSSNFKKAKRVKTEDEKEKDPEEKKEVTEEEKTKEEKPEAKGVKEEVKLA
T2 sequence (Q92769 whole entry, looked up): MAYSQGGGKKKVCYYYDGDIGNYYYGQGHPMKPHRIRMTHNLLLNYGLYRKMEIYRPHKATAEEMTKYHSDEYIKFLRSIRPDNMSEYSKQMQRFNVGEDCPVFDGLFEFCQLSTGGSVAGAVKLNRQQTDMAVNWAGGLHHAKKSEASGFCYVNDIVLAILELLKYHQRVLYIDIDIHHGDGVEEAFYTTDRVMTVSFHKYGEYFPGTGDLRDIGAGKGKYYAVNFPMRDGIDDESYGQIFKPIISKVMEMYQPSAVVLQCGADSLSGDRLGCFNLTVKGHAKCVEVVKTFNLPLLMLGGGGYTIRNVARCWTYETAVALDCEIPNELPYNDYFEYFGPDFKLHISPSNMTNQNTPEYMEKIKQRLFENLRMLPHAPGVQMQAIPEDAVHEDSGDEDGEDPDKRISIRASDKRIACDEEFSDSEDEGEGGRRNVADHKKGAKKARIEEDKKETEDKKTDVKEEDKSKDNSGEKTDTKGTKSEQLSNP
T2 sequence (Q9BY41 whole entry, looked up): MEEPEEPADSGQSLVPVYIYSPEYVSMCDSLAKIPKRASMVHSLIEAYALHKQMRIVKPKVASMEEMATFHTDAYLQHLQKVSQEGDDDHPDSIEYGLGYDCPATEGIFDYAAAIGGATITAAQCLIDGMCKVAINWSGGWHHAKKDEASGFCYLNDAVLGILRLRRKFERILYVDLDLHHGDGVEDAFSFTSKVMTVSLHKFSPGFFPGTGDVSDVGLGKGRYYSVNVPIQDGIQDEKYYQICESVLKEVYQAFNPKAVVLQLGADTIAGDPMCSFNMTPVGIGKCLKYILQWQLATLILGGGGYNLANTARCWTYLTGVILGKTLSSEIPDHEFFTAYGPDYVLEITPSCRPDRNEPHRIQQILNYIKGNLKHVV

SMILES | IC50 (Histone deacetylase 3) [nM] | inhibition [1] | Drug metabolism [2] | inhibition [3, 9] | Activity (HEK293) | inhibition [4, 9] | Drug metabolism [5] | EC50 (MV4-11) [nM] | other results
CCCCNNC(=O)c1cccc2ccccc12 | > 10000 | – | – | – | – | – | – | – | –
CCCNNC(=O)c1ccc(CNC(=O)c2ccccc2)cc1 | – | inactive | Metabolite_Notdetected | Active | Non-Toxic | Active | Metabolite_Notdetected | – | Activity [6]: Non-Toxic
C/C=C/CNNC(=O)c1ccc(CNC(=O)c2ccccc2)cc1 | 1550 | – | – | – | – | – | – | – | –
Cc1[nH]c2ccccc2c1CCNCc1ccc(/C=C/C(=O)NO)cc1 [PANOBINOSTAT] | – | – | – | – | – | – | – | < 30 | Activity [7]: Toxic
Nc1ccccc1NC(=O)c1ccc(CNC(=O)OCc2cccnc2)cc1 [ENTINOSTAT] | – | – | – | – | – | – | – | < 30 | –
CCCCNNC(=O)c1ccc(CNC(=O)c2ccccc2)cc1 | – | inactive | Metabolite_Notdetected | Active | Non-Toxic | Active | Metabolite_Notdetected | – | –
CC(C)NNC(=O)c1ccc(CNC(=O)c2ccccc2)cc1 | > 10000 | – | – | – | – | – | – | – | –
O=C(CCCCCCC(=O)Nc1ccccc1)NO [VORINOSTAT] | – | – | Metabolite_Notdetected | – | – | – | Metabolite_Detected | – | –
CC/C=N/NC(=O)c1ccc(CNC(=O)c2ccccc2)cc1 | > 10000 | – | – | – | – | – | – | – | inhibition ([3]; MV4-11, dose 100.0 nM): inactive; inhibition ([4]; MV4-11, dose 100.0 nM): inactive
CCCNNC(=O)c1ccc(CNC(=O)/C=C/c2ccccc2)cc1 | – | inactive | Metabolite_Notdetected | Active | Non-Toxic | Active | Metabolite_Notdetected | 36.4 | EC50 (MOLM-14): 76.6 nM; EC50 (K562): 2160 nM; EC50 (RPMI-8226): > 10000 nM; EC50 (HL-60): > 10000 nM; Activity [6]: Non-Toxic; EC50 (RS4-11): 152 nM; Drug metabolism [8]: Metabolite_Detected

From ChEMBL document CHEMBL4680089, “Development of Allosteric Hydrazide-Containing Class I Histone Deacetylase Inhibitors for Use in Acute Myeloid Leukemia” (J Med Chem, 2016)
